What all share (format): cell-based, Human
One experiment deals with MCF7 PR WT G2. Nature of the experiment: Drug treatment of single cell clone PR WT G2. Further: unit not given here. The conditions noted are these: ten day drug treatment.
Another experiment deals with MCF7 TP53 KO 3.4 pool. Nature of the experiment: Drug screening, resazurin, TP53 KO 3.4 pool. The conditions noted are these: for area under the curve (AUC): KO 34 Pool, ten day drug treatment (Table 3); for TP53 KO 3.4 pool (AUC): ten-day drug treatment, 156.25 nM to 10 μM, resazurin fluorescence. A general note: The colour change of resazurin is a common sign of viable cells or microbes.

The next experiment has as its system MCF7 TP53 KO 56 E3. In words: Drug treatment of single cell clone KO 56 E3. The settings on record: ten day drug treatment.
A further experiment has as its system MCF7 TP53 KO 56 A8. Nature of the experiment: Drug treatment of single cell clone KO 56 A8. The conditions noted are these: ten day drug treatment.
Another experiment concerns MCF7 TP53 KO 5.6 pool. Nature of the experiment: Drug screening, resazurin, TP53 KO 5.6 pool. The conditions noted are these: for area under the curve (AUC): KO 56 Pool, ten day drug treatment (Table 3); for TP53 KO 5.6 pool (AUC): ten-day drug treatment, 156.25 nM to 10 μM, resazurin fluorescence.
The next experiment concerns MCF7 TP53 KO 34 B5. Nature of the experiment: Drug treatment of single cell clone KO 34 B5. Further: unit not given here. The conditions noted are these: ten day drug treatment.
For a further experiment, the system named is MCF7 TP53 KO 56 A7. In words: Drug treatment of single cell clone KO 56 A7. Further: unit not given here. The conditions noted are these: ten day drug treatment.
The next experiment relates to MCF7 TP53 KO 34 D4. Nature of the experiment: Drug treatment of single cell clone KO 34 D4. Further: unit not given here. The conditions noted are these: ten day drug treatment.
In a further experiment the test system is MCF7 PR WT B8. Nature of the experiment: Drug treatment of single cell clone PR WT B8. Further: unit not given here. The settings on record: ten day drug treatment.
For the next experiment, the system named is MCF7 WT Parental pool. In words: Drug screening, resazurin, MCF7 wild type parental pool. The settings on record: for area under the curve (AUC): PR WT Pool, ten day drug treatment (Table 3); for MCF7 WT Parental pool (AUC): ten-day drug treatment, 156.25 nM to 10 μM, resazurin fluorescence.
For a further experiment, the system named is MCF7 PR WT C7. Nature of the experiment: Drug treatment of single cell clone PR WT C7. Further: unit not given here. The settings on record: ten day drug treatment.
The test system of another experiment is MCF7 TP53 KO 34 E1. Nature of the experiment: Drug treatment of single cell clone KO 34 E1. The conditions noted are these: ten day drug treatment.
A further experiment deals with MCF7 PR WT A8. Nature of the experiment: Drug treatment of single cell clone PR WT A8. Further: unit not given here. The conditions noted are these: ten day drug treatment.
A further experiment has as its system MCF7 TP53 KO 56 A5. Nature of the experiment: Drug treatment of single cell clone KO 56 A5. The settings on record: ten day drug treatment.
For another experiment, the system named is MCF7 TP53 KO 56 A4. Nature of the experiment: Drug treatment of single cell clone KO 56 A4. The conditions noted are these: ten day drug treatment.
For another experiment, the system named is MCF7 TP53 KO 56 C5. In words: Drug treatment of single cell clone KO 56 C5. The settings on record: ten day drug treatment.
A further experiment deals with MCF7 TP53 KO 56 E1. In words: Drug treatment of single cell clone KO 56 E1. Further: unit not given here. The conditions noted are these: ten day drug treatment.
The next experiment relates to MCF7 TP53 KO 56 A6. In words: Drug treatment of single cell clone KO 56 A6. The conditions noted are these: ten day drug treatment.

`CC(=O)c1c(C)c2cnc(Nc3ccc(N4CCNCC4)cn3)nc2n(C2CCCC2)c1=O` [Palbociclib]: the “area under the curve (AUC)” value was found to be 2.542 in the experiment on MCF7 PR WT G2; 1.88 in the experiment on MCF7 TP53 KO 3.4 pool; 1.469 in the experiment on MCF7 TP53 KO 56 E3; 2.031 in the experiment with MCF7 TP53 KO 56 A8; 1.457 in the experiment with MCF7 TP53 KO 5.6 pool; 1.522 in the experiment on MCF7 TP53 KO 34 B5. In addition, the “area under the curve (AUC)” value in the experiment on MCF7 TP53 KO 56 A7 was found to be 1.753; in the experiment with MCF7 TP53 KO 34 D4, 1.826; with MCF7 PR WT B8 it was 1.917; with MCF7 WT Parental pool it was 2.446; in the experiment with MCF7 PR WT C7, 2.543; with MCF7 TP53 KO 34 E1, 2.274. Also, the “area under the curve (AUC)” value in the experiment on MCF7 PR WT A8 stood at 2.127; in the experiment on MCF7 TP53 KO 56 A5, 1.647; in the experiment with MCF7 TP53 KO 56 A4, 1.846; in the experiment with MCF7 TP53 KO 56 C5, 1.632; with MCF7 TP53 KO 56 E1, 1.497; in the experiment on MCF7 TP53 KO 56 A6, 1.681. Moreover, in the experiment with MCF7 TP53 KO 3.4 pool, the “TP53 KO 3.4 pool (AUC)” value is 2.923. Further, in the experiment on MCF7 TP53 KO 5.6 pool, the “TP53 KO 5.6 pool (AUC)” value turned out to be 3.234. For the same compound, the “MCF7 WT Parental pool (AUC)” value with MCF7 WT Parental pool came to 3.461.
Consider `O=c1[nH]cc(F)c(=O)[nH]1` [Fluorouracil], for which the “area under the curve (AUC)” value is given as 2.265 in the experiment on MCF7 PR WT G2; 1.721 with MCF7 TP53 KO 3.4 pool; 1.645 in the experiment with MCF7 TP53 KO 56 E3; 2.02 in the experiment with MCF7 TP53 KO 56 A8; 1.745 in the experiment with MCF7 TP53 KO 5.6 pool; 1.618 in the experiment with MCF7 TP53 KO 34 B5. The “area under the curve (AUC)” value in the experiment on MCF7 TP53 KO 56 A7 was 1.81; in the experiment on MCF7 TP53 KO 34 D4 it was 1.812; in the experiment with MCF7 PR WT B8 it was 1.886; in the experiment on MCF7 WT Parental pool, 2.156; with MCF7 PR WT C7, 2.105; in the experiment with MCF7 TP53 KO 34 E1, 1.945. For the same compound, the “area under the curve (AUC)” value with MCF7 PR WT A8 was 2.126; with MCF7 TP53 KO 56 A5 it was 1.46; with MCF7 TP53 KO 56 A4, 1.716; in the experiment on MCF7 TP53 KO 56 C5 it was 1.826; in the experiment with MCF7 TP53 KO 56 E1, 1.697; in the experiment on MCF7 TP53 KO 56 A6 it was 1.811. Moreover, the “TP53 KO 3.4 pool (AUC)” value with MCF7 TP53 KO 3.4 pool is 3.782. Moreover, the “TP53 KO 5.6 pool (AUC)” value in the experiment on MCF7 TP53 KO 5.6 pool is given as 4.286. Also, in the experiment with MCF7 WT Parental pool, the “MCF7 WT Parental pool (AUC)” value was determined as 6.548.
Regarding `COc1ccc(C2=N[C@@H](c3ccc(Cl)cc3)[C@@H](c3ccc(Cl)cc3)N2C(=O)N2CCNC(=O)C2)c(OC(C)C)c1` [Nutlin3], the “area under the curve (AUC)” value came out at 1.011 with MCF7 PR WT G2; 0.8828 in the experiment with MCF7 PR WT B8; 1.16 in the experiment with MCF7 WT Parental pool; 1.042 in the experiment on MCF7 PR WT C7; 0.9589 in the experiment with MCF7 PR WT A8. Besides, the “MCF7 WT Parental pool (AUC)” value in the experiment with MCF7 WT Parental pool was found to be 3.686.
Regarding `O=C1[O][Pt]2([NH][C@@H]3CCCC[C@H]3[NH]2)[O]C1=O` [Oxaliplatin], the “area under the curve (AUC)” value in the experiment on MCF7 PR WT G2 is recorded as 0.8186; in the experiment on MCF7 TP53 KO 3.4 pool it was 1.25; with MCF7 TP53 KO 56 E3, 0.9635; in the experiment on MCF7 TP53 KO 56 A8, 1.229; with MCF7 TP53 KO 5.6 pool, 1.164; with MCF7 TP53 KO 34 B5, 0.973. The “area under the curve (AUC)” value in the experiment on MCF7 TP53 KO 56 A7 is listed as 1.23; in the experiment on MCF7 TP53 KO 34 D4, 1.392; in the experiment with MCF7 PR WT B8, 0.7911; in the experiment with MCF7 WT Parental pool, 0.9557; with MCF7 PR WT C7, 0.8311; in the experiment on MCF7 TP53 KO 34 E1 it was 1.46. For the same compound, the “area under the curve (AUC)” value in the experiment on MCF7 PR WT A8 amounted to 0.7779; in the experiment on MCF7 TP53 KO 56 A5 it was 1.197; with MCF7 TP53 KO 56 A4, 1.29; in the experiment with MCF7 TP53 KO 56 C5 it was 1.239; in the experiment on MCF7 TP53 KO 56 E1, 1.208; in the experiment with MCF7 TP53 KO 56 A6, 1.243. Further, the “TP53 KO 3.4 pool (AUC)” value in the experiment with MCF7 TP53 KO 3.4 pool is listed as 5.272. In addition, in the experiment with MCF7 TP53 KO 5.6 pool, the “TP53 KO 5.6 pool (AUC)” value stood at 5.118. Further, the “MCF7 WT Parental pool (AUC)” value in the experiment with MCF7 WT Parental pool was 2.372.
For `Cn1nnc2c(C(N)=O)ncn2c1=O` [Temozolomide], in the experiment on MCF7 TP53 KO 3.4 pool, the “TP53 KO 3.4 pool (AUC)” value is 9.565. In addition, the “TP53 KO 5.6 pool (AUC)” value in the experiment on MCF7 TP53 KO 5.6 pool is recorded as 10.06. The “MCF7 WT Parental pool (AUC)” value in the experiment with MCF7 WT Parental pool is recorded as 9.187.

The values are drawn from patent US20190309272A1, “Genetically Modified Cell Lines Including a TP53 Modification and Methods of Use” (UNIVERSITY OF SOUTH CAROLINA, priority 2018, published 2019).
